Data from the NIST ThermoML archive (doi:10.1016/j.fluid.2017.09.010).
± gives the expanded uncertainty stated by the source.

Conditions: Liquid, Ebulliometric method (Recirculating still)

CC(=O)OC(C)C [1-methylethyl ethanoate]
vapor or sublimation pressure (361.8 K): 101 ± 1 kPa

CCCOC(C)=O [propyl ethanoate]
vapor or sublimation pressure (374.2 K): 101 ± 1 kPa

O [water]
vapor or sublimation pressure (373 K): 101 ± 5 kPa

CC(C)O [propan-2-ol]
vapor or sublimation pressure (355.4 K): 101 ± 1 kPa
